According to US12729405B2, “Method and kit for determining benefit of chemotherapy” (St. Jude Children's Research Hospital, Inc., priority 2019, dated 2026):
Like-named read-outs stand apart in the source and are kept apart here.

Key:
primary human ALL cells = assay: cells; conditions: for response of dasatinib-resistant T-ALL: dasatinib-resistant T-ALL cases, as well as cell lines; for response of dasatinib-sensitive primary T-ALL cases to other ABL inhibitors: subset of primary T-ALL samples (N=18)
Experimental: Ex vivo Leukemia Drug Sensitivity Assay. Drug response of primary human ALL cells was evaluated using a co-culture system and flow cytometry assays. hTERT-immortalized mesenchymal stem cells ([…] Wang, et al. (2019) Nat. Commun. 10:3718) were first seeded in a 96-well plate format at a density of 10,000 cells per well in 100 μL of complete medium (RPMI-1640, L-glutamine, 10% fetal bovine serum and 1 μM Hydrocortisone). After 24 hours, leukemia cells were added at 160,000 cells per well to the stromal cell layer in 80 μL AIM-V medium along with 20 μL of drug solution prepared in the same medium. […] After 96 hours incubation at 37° C. with 5% CO2, cells were harvested and stained with CD19 or CD7 to identify leukemia blasts (for B-ALL and T-ALL, respectively). The total number of live leukemia cells were evaluated by using flow cytometry after Annexin V and DAPI staining. Drug-induced death was estimated by comparing to leukemia cells treated with the vehicle alone. The drug concentration that killed 50% of the leukemia cells (LC50 value) was determined using a dose-response model and as a measurement of drug sensitivity. Quality control was performed to remove cases with low viability (less than 1000 viable blast cells in each well in the absence of drugs on day 4).

[1] = dasatinib dosing for CML, oral twice a day; cited from earlier work

COc1ccc(N(C(=O)Oc2c(C)cccc2C)c2ccnc(Nc3ccc(N4CCN(C)CC4)cc3)n2)c(OC)c1 [WH 4-023]
cytotoxicity in dasatinib-sensitive cases (primary human ALL cells): potent cytotoxicity | response of dasatinib-resistant T-ALL (primary human ALL cells): largely did not respond

Cc1nc(Nc2ncc(C(=O)Nc3c(C)cccc3Cl)s2)cc(N2CCN(CCO)CC2)n1 [dasatinib]
Cmax [1]: 60 to 120 nM | T-ALL cases classified as dasatinib-sensitive (primary human ALL cells; 45 T-ALL cases, cutoff LC50 80 nM, 15 cases): 33.3% | CC50 (primary human ALL cells; Homo sapiens, 96 h, read-out: LC50 (mean), cases with high LC50, ALL samples, high-LC50 mode of bimodal distribution, 96 hours): 12000 nM | CC50 (primary human ALL cells; Homo sapiens, 96 h, read-out: LC50 (mean), cases with low LC50, ALL samples (352 children and adults), low-LC50 mode of bimodal distribution, 96 hours): 5.92 nM | CC50 (primary human ALL cells; Homo sapiens, read-out: LC50 (range), cases with high LC50, ALL samples, high-LC50 mode, 20000 nM is the assigned ceiling): 102 to 20000 nM | CC50 (primary human ALL cells; Homo sapiens, read-out: LC50, one T-ALL case with TCF7-SP1 fusion, 0.05 nM is the assigned floor value): ≤ 0.05 nM | CC50 (primary human ALL cells; Homo sapiens, read-out: LC50, two additional T-ALL cases with the same SPI1 fusion gene, ex vivo): 0.05 nM | dasatinib-sensitive T-ALL in adults (primary human ALL cells; adults with T-ALL, cutoff LC50 80 nM): 16.7% | dasatinib-sensitive T-ALL in children (primary human ALL cells; children with T-ALL, cutoff LC50 80 nM): 44.4% | CC50 (primary human ALL cells; human, 96 h): 0.05 to 79.4 nM

Cc1ccc(NC(=O)c2ccc(CN3CCN(C)CC3)cc2)cc1Nc1nccc(-c2cccnc2)n1 [imatinib]
response of dasatinib-sensitive primary T-ALL cases to other ABL inhibitors (primary human ALL cells): universally resistant

Cc1cn(-c2cc(NC(=O)c3ccc(C)c(Nc4nccc(-c5cccnc5)n4)c3)cc(C(F)(F)F)c2)cn1 [nilotinib]
response of dasatinib-sensitive primary T-ALL cases to other ABL inhibitors (primary human ALL cells): universally resistant

COC(=O)c1ccc2c(c1)NC(=O)/C2=C(\Nc1ccc(N(C)C(=O)CN2CCN(C)CC2)cc1)c1ccccc1 [nintedanib]
cytotoxicity in dasatinib-sensitive cases (primary human ALL cells): potent cytotoxicity | response of dasatinib-resistant T-ALL (primary human ALL cells): largely did not respond
